Some test systems named below: OVCAR-4 ovarian; UACC-62 melanoma; SNB-19 CNS; U251 CNS; NCI-H226 lung; PC-3 prostate; SR leukemia; 786-0 renal; SK-MEL-5 melanoma; MCF7 breast; HL-60(TB) leukemia; NCI-H23 lung; TK-10 renal; UACC-257 melanoma; ACHN renal; OVCAR-5 ovarian; HCC-2998 colon.
Common to all, as to assay: NCI-60 cell line screen, 48 h

SMILES strings stand for the structures.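 Five concentrations, 48 hours, 96-well plates. TGI denotes the concentration required for complete inhibition of growth.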

As for `CC(=O)n1cc(OP(=O)(Oc2ccccc2)Oc2ccccc2)c2ccccc21`, the TGI in the assay on OVCAR-4 ovarian is 73.3 µM; in the assay with UACC-62 melanoma it was 42.6 µM; with SNB-19 CNS, more than 100 µM; in the assay with U251 CNS, more than 100 µM; in the assay on NCI-H226 lung, more than 100 µM; in the assay with PC-3 prostate, 31 µM. Further, the TGI was 72.4 µM in the assay with SR leukemia; more than 100 µM with 786-0 renal; 40.9 µM in the assay on SK-MEL-5 melanoma; 31.5 µM in the assay on MCF7 breast; 50.3 µM in the assay with HL-60(TB) leukemia; more than 100 µM in the assay with NCI-H23 lung. Besides, the TGI is more than 100 µM in the assay with TK-10 renal and 77.2 µM in the assay with UACC-257 melanoma.
As for `COC(=O)C1=C(C)NC(C)=C(C(=O)OC)C1c1ccc(N=O)cc1`, the TGI in the assay with OVCAR-4 ovarian is 14.2 µM; with UACC-62 melanoma, 30 µM; in the assay with SNB-19 CNS, more than 81.2 µM; in the assay on U251 CNS, 32.2 µM; in the assay on NCI-H226 lung, 39.3 µM; in the assay with PC-3 prostate, 29.3 µM. The TGI was 26.7 µM with ACHN renal; 27.7 µM in the assay with 786-0 renal; 32.9 µM in the assay with OVCAR-5 ovarian; 30.9 µM with SK-MEL-5 melanoma; 37 µM with MCF7 breast; more than 100 µM in the assay with HL-60(TB) leukemia. Besides, the TGI in the assay on NCI-H23 lung is 38.9 µM; in the assay on TK-10 renal it was 29.2 µM; in the assay with HCC-2998 colon it was 33.7 µM; in the assay with UACC-257 melanoma, 23.2 µM.
For `CC(C)(C)OC(=O)NCCNCCNc1ccccc1`, the TGI in the assay on OVCAR-4 ovarian, in the assay on UACC-62 melanoma, with SNB-19 CNS, with U251 CNS, with NCI-H226 lung and with PC-3 prostate was more than 100 µM throughout. The TGI in the assay with SR leukemia, with ACHN renal, in the assay on 786-0 renal, in the assay with OVCAR-5 ovarian, in the assay with SK-MEL-5 melanoma and in the assay on MCF7 breast was more than 100 µM throughout. For the same compound, the TGI in the assay on NCI-H23 lung, in the assay with TK-10 renal, with HCC-2998 colon and with UACC-257 melanoma was more than 100 µM throughout.
Consider `O=c1[nH]c(=O)n(C2CC(O)C(CO)O2)c2nc3ccc4cc5ccccc5cc4c3nc12` (stereo not drawn), for which the TGI in the assay with OVCAR-4 ovarian, in the assay on UACC-62 melanoma, with SNB-19 CNS, in the assay with U251 CNS, with NCI-H226 lung and with PC-3 prostate was more than 100 µM in each case. The TGI in the assay on SR leukemia, with ACHN renal, with 786-0 renal, with OVCAR-5 ovarian, with SK-MEL-5 melanoma and in the assay on MCF7 breast was more than 100 µM each time. The TGI in the assay on NCI-H23 lung, with TK-10 renal, in the assay with HCC-2998 colon and with UACC-257 melanoma was more than 100 µM each time.
In the case of `Cn1c2ccccc2c(=O)c2cccc(C(=O)NCC(=O)O)c21`, the TGI with OVCAR-4 ovarian, in the assay on UACC-62 melanoma, in the assay on SNB-19 CNS, with U251 CNS, in the assay on NCI-H226 lung and in the assay on PC-3 prostate was more than 100 µM throughout. The TGI in the assay with SR leukemia, with ACHN renal, with 786-0 renal, with OVCAR-5 ovarian, in the assay on SK-MEL-5 melanoma and in the assay on MCF7 breast was more than 100 µM throughout. The TGI in the assay with NCI-H23 lung, in the assay with TK-10 renal, in the assay with HCC-2998 colon and in the assay with UACC-257 melanoma was more than 100 µM throughout.
On to `CCN(CC)c1ccc2nc3ccc(N=Nc4c(O)ccc5ccccc45)cc3[n+](-c3ccccc3)c2c1`, for which the TGI in the assay with OVCAR-4 ovarian, in the assay on UACC-62 melanoma, in the assay on SNB-19 CNS, in the assay on U251 CNS, in the assay with NCI-H226 lung and with PC-3 prostate was more than 100 µM each time. In addition, the TGI in the assay with SR leukemia, with ACHN renal, with 786-0 renal, with OVCAR-5 ovarian, in the assay with SK-MEL-5 melanoma and with HL-60(TB) leukemia was more than 100 µM in each case. For the same compound, the TGI in the assay with NCI-H23 lung, in the assay with TK-10 renal and with UACC-257 melanoma was more than 100 µM each time.
Take `ONC1=Nc2ccccc2C(=S)N2CSCC12` (stereo not drawn): the TGI in the assay with OVCAR-4 ovarian, in the assay with UACC-62 melanoma, in the assay with SNB-19 CNS, in the assay with U251 CNS, in the assay on NCI-H226 lung and with PC-3 prostate was more than 100 µM each time. Also, the TGI in the assay on SR leukemia is 89 µM; in the assay on ACHN renal, more than 100 µM; in the assay with 786-0 renal, more than 100 µM; in the assay on OVCAR-5 ovarian, more than 100 µM; in the assay on SK-MEL-5 melanoma, 99.2 µM; in the assay with MCF7 breast, more than 100 µM. Also, the TGI in the assay with TK-10 renal, with HCC-2998 colon and in the assay with UACC-257 melanoma was more than 100 µM each time.
Consider `Oc1c(Br)cc(/C=C/c2cccc(/C=C/c3cc(Br)c(O)c(Br)c3)n2)cc1Br`, for which the TGI stood at 35.7 µM in the assay with OVCAR-4 ovarian; 41.8 µM in the assay on UACC-62 melanoma; 29.4 µM with SNB-19 CNS; 21.2 µM in the assay with U251 CNS; 25.1 µM in the assay with PC-3 prostate; 18.9 µM in the assay with SR leukemia. For the same compound, the TGI in the assay with ACHN renal was found to be 52.3 µM; in the assay on 786-0 renal, 28 µM; with OVCAR-5 ovarian, 32.3 µM; with SK-MEL-5 melanoma, 19.8 µM; in the assay with MCF7 breast, 42.5 µM; with TK-10 renal it was 56.3 µM. The TGI came to 18.8 µM in the assay with HCC-2998 colon and 37.2 µM in the assay with UACC-257 melanoma.
As for `CCCCCCCCCCCCCCCCCCNc1nc(=O)n(C2CC(O)C(COP(=O)(O)OCC3OC(n4ccc(N)nc4=O)C(O)C3O)O2)cc1F` (stereo not drawn), the TGI with OVCAR-4 ovarian, in the assay with UACC-62 melanoma, in the assay on SNB-19 CNS, in the assay with U251 CNS, in the assay on NCI-H226 lung and with PC-3 prostate was more than 100 µM each time. Also, the TGI in the assay with SR leukemia, with ACHN renal, in the assay on 786-0 renal, with OVCAR-5 ovarian, with SK-MEL-5 melanoma and in the assay on MCF7 breast was more than 100 µM each time. Also, the TGI with NCI-H23 lung, in the assay with TK-10 renal, with HCC-2998 colon and in the assay on UACC-257 melanoma was more than 100 µM throughout.

The values are drawn from PubChem BioAssay (NCI).
